These compounds were tested on Ogataea polymorpha strain NBRC0799-derived carbonyl reductase (assay: Reactivity of purified Ogataea polymorpha strain NBRC0799-derived carbonyl reductase to substrates (reduction reaction, NADH decrease at 340 nm)). Conditions: (a) Reduction reaction; substrate 50 mM, NADH 0.1 mM, 168 mM sodium phosphate buffer pH 6.0, 30° C.; enzyme activity with acetone as substrate defined as 100%.
Type: biochemical
Procedure: For enzyme activity measurement, NADH was added at a final concentration of 0.1 mM to 168 mM sodium phosphate buffer (pH 6.0) containing an enzyme or a microorganism, and 1,1-difluoroacetone was added at a final concentration of 50 mM to this reaction solution to initiate the reaction (reaction solution volume: 1 mL). The reaction was conducted at 30° C., and decreases in NADH were monitored with a spectrophotometer (V-630BIO, JASCO Corporation, Japan) as changes in absorbance at 340 nm. It should be noted that the enzyme activity was determined assuming that the amount of enzyme required to catalyze the oxidation of 1 μmol NADH per minute was defined as 1 U (unit).
To 168 mM sodium phosphate buffer (pH 6.0) containing the enzyme purified from Ogataea polymorpha strain NBRC0799, NADH was added at a final concentration of 0.1 mM, and the substrates indicated in Table B below were each added at a final concentration of 50 mM to this reaction solution to initiate the reaction (reaction solution volume: I mL). The reaction was conducted at 30° C., and decreases in NADH were measured with a spectrophotometer (V-630BIO, JASCO Corporation, Japan) as changes in absorbance at 340 nm.
Relative activity refers to the ratio of enzyme activity (conversion speed) for each substrate in comparison with the enzyme activity when using acetone as a substrate, which is defined to be 100%. When 1,1-difluoroacetone or 1,1,1-trifluoroacetone is provided as a substrate, the conversion speed per se of the enzyme is reduced (many hours are required to complete the reaction). In the case of acetone, its two methyl groups are equal, so that acetone will be captured by a recognition site in the enzyme without distinction between these two methyl groups. However, in the case of 1,1-difluoroacetone and 1,1,1-trifluoroacetone, their capture by an active site in the enzyme would require recognition between a fluoromethyl group and a methyl group, so that the speed of their capture becomes slower. On the other hand, in the case of 1,3-difluoroacetone, the fluorine atoms introduced thereinto would alter electronegativity and so on, when compared to acetone.
With `CCC(C)=O` [2-Butanone] the “Relative Activity (%)” value was 132%.
For `CCCC=O` [Butyraldehyde], the “Relative Activity (%)” value was 193%.
For `CCC=O` [Propionaldehyde], the “Relative Activity (%)” value was 141%.
For `CC(=O)C(F)(F)F` [1,1,1-Trifluoroacetone], the “Relative Activity (%)” value was 50%.
For `CC(C)=O` [Acetone, reference compound], the “Relative Activity (%)” value was 100%.
With `CC(=O)CF` [Fluoroacetone] the “Relative Activity (%)” value was 211%.
With `CC(=O)C(F)F` [1,1-Difluoroacetone] the “Relative Activity (%)” value was 58%.
For `O=C(CF)CF` [1,3-Difluoroacetone], the “Relative Activity (%)” value was 52%.
`CC=O` [Acetaldehyde] was tested, and the “Relative Activity (%)” value was 330%.
`CC(=O)CC(F)(F)F` [4,4,4-Trifluoro-2-butanone] was tested, and the “Relative Activity (%)” value was 228%.

Same assay, conditions: substrate 50 mM, NADH 0.1 mM, pH 6.0, 30° C.
For `CC(=O)C(F)(F)F` [1,1,1-Trifluoroacetone], the “conversion speed of the enzyme in comparison with acetone as a substrate” value was “reduced”.
In the case of `CC(=O)C(F)F` [1,1-Difluoroacetone], the “conversion speed of the enzyme in comparison with acetone as a substrate” value is reported as “reduced”.

From patent US20180105840A1, “PROCESS FOR INDUSTRIAL PRODUCTION OF CHIRAL-1,1-DIFLUORO-2-PROPANOL” (PUBLIC UNIVERSITY CORPORATION TOYAMA PREFECTURAL UNIVERSITY, priority 2015, published 2018)
